Measurements from ChEMBL document CHEMBL1157642, “2-Amino-5-benzoyl-4-phenylthiazoles: Development of potent and selective adenosine A1 receptor antagonists” (Bioorg Med Chem, 2010).
pKi: −log10 of the molar value.

Tests used:
[1] = molecular target: T1, Adenosine receptor A3 (Rattus norvegicus, UniProt P28647)
T1 sequence (P28647 whole entry): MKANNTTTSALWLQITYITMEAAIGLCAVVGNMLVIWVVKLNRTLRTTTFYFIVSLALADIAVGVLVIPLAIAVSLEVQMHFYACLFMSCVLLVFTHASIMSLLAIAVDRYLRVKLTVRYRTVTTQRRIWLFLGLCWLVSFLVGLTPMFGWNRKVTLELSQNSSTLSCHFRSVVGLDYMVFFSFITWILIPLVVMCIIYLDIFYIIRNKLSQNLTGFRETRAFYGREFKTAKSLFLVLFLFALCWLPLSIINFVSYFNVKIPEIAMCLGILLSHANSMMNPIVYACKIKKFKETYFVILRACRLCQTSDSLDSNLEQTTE
Description: Binding affinity to rat adenosine A3 receptor

[2] = molecular target: T2, Adenosine receptor A1 (Cavia porcellus, UniProt P47745); experiment: Binding affinity to guinea pig adenosine A1 receptor
T2 sequence (P47745 whole entry): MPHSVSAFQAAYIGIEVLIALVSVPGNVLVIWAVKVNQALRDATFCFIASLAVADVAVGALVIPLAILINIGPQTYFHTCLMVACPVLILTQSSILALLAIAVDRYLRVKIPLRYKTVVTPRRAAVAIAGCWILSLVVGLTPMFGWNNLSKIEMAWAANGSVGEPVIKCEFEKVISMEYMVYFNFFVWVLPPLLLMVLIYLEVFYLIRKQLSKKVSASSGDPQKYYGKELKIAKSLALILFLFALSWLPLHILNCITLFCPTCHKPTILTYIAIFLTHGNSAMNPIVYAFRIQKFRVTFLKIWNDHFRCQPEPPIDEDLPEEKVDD

[3] = molecular target: T3, Adenosine receptor A3 (Ovis aries, UniProt P35342); experiment: Binding affinity to sheep adenosine A3 receptor
T3 sequence (P35342 whole entry): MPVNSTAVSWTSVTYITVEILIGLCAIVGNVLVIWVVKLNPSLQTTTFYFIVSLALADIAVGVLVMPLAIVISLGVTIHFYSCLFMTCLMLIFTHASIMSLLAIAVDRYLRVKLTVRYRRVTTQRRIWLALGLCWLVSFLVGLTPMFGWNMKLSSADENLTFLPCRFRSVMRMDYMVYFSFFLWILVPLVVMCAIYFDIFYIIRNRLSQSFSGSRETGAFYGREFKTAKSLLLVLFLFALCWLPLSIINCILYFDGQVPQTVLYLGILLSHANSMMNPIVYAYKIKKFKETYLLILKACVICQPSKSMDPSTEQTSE

[4] = molecular target: Adenosine receptor A2a (Cavia porcellus, UniProt P46616); experiment: Binding affinity to guinea pig adenosine A2A receptor
[5] = molecular target: T4, Adenosine receptor A2b (Homo sapiens) (UniProt P29275); experiment: Antagonist activity at human adenosine A2B receptor; type: functional
T4 sequence (whole entry): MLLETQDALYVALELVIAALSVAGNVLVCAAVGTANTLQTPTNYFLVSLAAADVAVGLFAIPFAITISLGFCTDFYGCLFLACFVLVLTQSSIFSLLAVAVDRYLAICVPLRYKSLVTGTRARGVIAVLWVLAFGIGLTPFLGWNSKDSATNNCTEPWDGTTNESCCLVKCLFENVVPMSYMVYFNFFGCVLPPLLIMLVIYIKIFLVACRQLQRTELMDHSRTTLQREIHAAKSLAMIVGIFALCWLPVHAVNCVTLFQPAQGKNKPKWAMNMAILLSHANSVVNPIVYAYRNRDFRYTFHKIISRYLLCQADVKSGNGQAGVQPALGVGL

[6] = molecular target: Adenosine receptor A2a (Homo sapiens, UniProt P29274)
Description: Binding affinity to human adenosine A2A receptor

[7] = molecular target: T5, Adenosine receptor A1 (Homo sapiens, UniProt P30542); experiment: Binding affinity to human adenosine A1 receptor
T5 sequence (P30542 whole entry): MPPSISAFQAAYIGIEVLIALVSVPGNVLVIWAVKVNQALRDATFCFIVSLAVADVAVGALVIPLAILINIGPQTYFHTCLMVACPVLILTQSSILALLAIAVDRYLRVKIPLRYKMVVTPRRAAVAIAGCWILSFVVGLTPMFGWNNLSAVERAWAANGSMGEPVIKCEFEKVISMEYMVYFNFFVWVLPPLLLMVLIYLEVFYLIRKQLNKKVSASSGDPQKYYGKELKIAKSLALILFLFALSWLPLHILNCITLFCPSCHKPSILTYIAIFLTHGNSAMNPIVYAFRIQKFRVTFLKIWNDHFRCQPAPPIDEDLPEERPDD

Chain of Adenosine receptor A2a (Cavia porcellus, UniProt P46616) (P46616 whole entry): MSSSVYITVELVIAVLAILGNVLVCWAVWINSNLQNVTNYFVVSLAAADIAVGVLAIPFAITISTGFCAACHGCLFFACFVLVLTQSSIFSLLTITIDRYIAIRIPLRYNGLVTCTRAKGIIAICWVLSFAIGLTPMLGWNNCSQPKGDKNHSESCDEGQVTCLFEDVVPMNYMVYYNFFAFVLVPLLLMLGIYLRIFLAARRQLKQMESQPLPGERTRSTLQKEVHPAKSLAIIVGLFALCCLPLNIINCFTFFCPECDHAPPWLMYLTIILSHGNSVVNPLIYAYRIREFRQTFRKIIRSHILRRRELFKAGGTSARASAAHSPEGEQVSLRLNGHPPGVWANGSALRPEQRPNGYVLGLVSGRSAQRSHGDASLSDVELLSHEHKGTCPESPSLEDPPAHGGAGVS
Chain of Adenosine receptor A2a (Homo sapiens, UniProt P29274) (P29274 whole entry): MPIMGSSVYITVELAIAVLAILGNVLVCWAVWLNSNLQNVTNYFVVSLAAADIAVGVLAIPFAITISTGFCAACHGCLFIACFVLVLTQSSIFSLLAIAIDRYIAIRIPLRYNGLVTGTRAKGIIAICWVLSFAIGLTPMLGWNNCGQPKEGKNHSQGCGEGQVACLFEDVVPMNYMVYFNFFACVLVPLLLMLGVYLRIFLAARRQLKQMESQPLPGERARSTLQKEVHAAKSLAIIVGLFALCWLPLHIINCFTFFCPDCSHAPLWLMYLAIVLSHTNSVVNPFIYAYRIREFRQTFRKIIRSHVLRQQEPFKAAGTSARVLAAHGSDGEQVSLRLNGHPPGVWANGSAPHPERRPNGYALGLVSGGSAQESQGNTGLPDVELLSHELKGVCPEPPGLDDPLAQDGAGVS

`Cn1c(=O)c2[nH]cnc2n(C)c1=O` [THEOPHYLLINE] gave a pKi [1] of 4.07.
`Cn1cnc2c(N[C@H]3C[C@H]4CC[C@@H]3C4)ncnc21` gave a pKi [2] of 6.43, a pKi [3] of 7.38 and a pKi [4] of 5.43.
With `COc1cc(-c2nc(NC(C)=O)sc2-c2ccncc2)cc(OC)c1OC` the Kb [5] was 3.2 µM, the pKi [6] was < 5.00 and the pKi [7] was < 5.00.
